According to patent US12507703B2, “Methods, devices and compositions for preserving human milk” (The Trustees of Princeton University, priority 2023, dated 2025):
Several values for one entry are separate records, joined by “and”; a condition that tells them apart may be missing. Equal entries are not always repeated.

test system: lipase; assay: Lipase/lipolysis assay (EnzChek Lipase Substrate, quenched BODIPY-fatty acid conjugate) on stored human milk; further: test concentration or dose not given here

SMILES	Lipase (RFU)
CC(C)[C@H](C)[C@@H](O)[C@H](O)[C@@H](C)[C@H]1CC[C@H]2[C@@H]3COC(=O)[C@H]4C[C@H](O)[C@H](O)C[C@]4(C)[C@H]3CC[C@]12C [Brassinolide]	945.8414 RFU
CN1[C@@H]2CC[C@H]1C[C@@H](OC(=O)C(CO)c1ccccc1)C2 (stereo partly shown) [Atropine (sulfate monohydrate)]	1099.713 RFU
O=c1[nH]c(=O)c2[nH]c(=O)[nH]c2[nH]1.[Na] [Uric acid (sodium)]	855.3809 RFU
O=C(O)[C@H](O)[C@@H](O)[C@H](O)[C@H](O)CO[C@H]1O[C@H](CO)[C@H](O)[C@H](O)[C@H]1O [Melibionic Acid]	917.5297 RFU
Cc1ccc(C(C)C)c(O)c1 [Thymol]	1327.554 RFU and 943.6199 RFU
COc1cc2c(cc1O)C[C@H]1c3c(cc(O)c(OC)c3-2)CCN1C [Boldine]	931.6237 RFU
O=c1cc(-c2ccc(O)cc2)oc2c([C@@H]3O[C@H](CO)[C@@H](O)[C@H](O)[C@H]3O)c(O)c([C@@H]3OC[C@H](O)[C@H](O)[C@H]3O)c(O)c12 [Isoschaftoside]	949.6414 RFU
Nc1nc2c(ncn2[C@@H]2O[C@@H]3COP(=O)(O)O[C@H]3[C@H]2O)c(=O)[nH]1 [Guanosine-3′,5′-cyclic monophosphate]	813.7484 RFU and 1141.322 RFU
C[C@]12CC[C@H](O)C[C@@H]1CC[C@@H]1[C@@H]2CC[C@]2(C)C(=O)CC[C@@H]12 [Epiandrosterone]	760.9004 RFU
COc1ccc(CC(=O)O)cc1O [Isohomovanillic acid]	1060.172 RFU
CC(C)=CCC[C@](C)(O[C@@H]1O[C@H](CO[C@@H]2OC[C@H](O)[C@H](O)[C@H]2O)[C@@H](O)[C@H](O)[C@H]1O)[C@H]1CC[C@]2(C)[C@@H]1[C@H](O)C[C@@H]1[C@@]3(C)CC[C@H](O[C@@H]4O[C@H](CO)[C@@H](O)[C@H](O)[C@H]4O[C@@H]4O[C@H](CO)[C@@H](O)[C@H](O)[C@H]4O)C(C)(C)[C@@H]3CC[C@]12C [Ginsenoside Rb2]	872.7793 RFU
COc1ccc([C@@H]2CC(=O)c3c(O)cc(O[C@@H]4O[C@H](CO[C@@H]5O[C@@H](C)[C@H](O)[C@@H](O)[C@H]5O)[C@@H](O)[C@H](O)[C@H]4O)cc3O2)cc1O [Hesperidin]	595.5734 RFU and 766.088 RFU
Cl.NCC(=O)CCC(=O)O [5-Aminolevulinic acid (hydrochloride)]	643.3591 RFU
CC(=O)OC(C)(C)/C=C/C(=O)[C@](C)(O)[C@H]1[C@H](O)C[C@@]2(C)[C@@H]3CC=C4[C@H](C[C@H](O)C(=O)C4(C)C)[C@]3(C)C(=O)C[C@]12C [Cucurbitacin B]	789.0588 RFU
Cn1cncc1C[C@H](NC(=O)CCN)C(=O)O [Anserine]	1023.923 RFU
C=C1C[C@@]23CC[C@H]4[C@@](C)(CCC[C@@]4(C)C(=O)O)[C@@H]2CC[C@]1(O[C@@H]1O[C@H](CO)[C@@H](O)[C@H](O)[C@H]1O[C@@H]1O[C@H](CO)[C@@H](O)[C@H](O)[C@H]1O)C3 [Steviolbioside]	1061.907 RFU
CC(C)CCC[C@@H](C)[C@H]1CC[C@H]2C3=CC[C@H]4C[C@@H](O)CC[C@]4(C)[C@H]3CC[C@]12C [Lathosterol]	1017.106 RFU
CC(C)=CCC[C@](C)(O[C@@H]1O[C@H](CO[C@@H]2OC[C@H](O)[C@H](O)[C@H]2O)[C@@H](O)[C@H](O)[C@H]1O)[C@H]1CC[C@]2(C)[C@@H]1[C@H](O)C[C@@H]1[C@@]3(C)CC[C@H](O)C(C)(C)[C@@H]3[C@@H](O)C[C@]12C [Ginsenoside F3]	878.0505 RFU
CCN(Cc1cccc(S(=O)(=O)[O-])c1)c1ccc(C(=C2C=CC(=[N+](CC)Cc3cccc(S(=O)(=O)[O-])c3)C=C2)c2ccccc2S(=O)(=O)[O-])cc1.[Na+].[Na+] [Brilliant Blue FCF]	652.1115 RFU
